Consider 26 compounds from patent US20230373985A1 (Origenis Gmbh, priority 2020, published 2023).

Assay [1] deals with T1, wt human JAK1, catalytic site (Homo sapiens, UniProt P23458).
T1 construct: wt human JAK1, catalytic site; purchased ThermoFisher
The assay is described as follows: HTRF KinEASE assay, JAK1. It counts as biochemical. Particulars: 2.5 μM ATP; read-out: IC50, Activity Toward JAK1. An outline of the steps:
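Two-step HTRF KinEASE assay: compound, kinase/biotinylated TK substrate and ATP were incubated at least 30 min at room temperature. Antibody plus streptavidin-XL665 was then added and plates were read after 60 min. Inhibition was derived from emission ratios according to the kit protocol.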
(In general: TR-FRET usually uses a lanthanide donor and a delayed reading to cut background.)

Assay [2] addresses T2, wt human TYK2, catalytic site (Homo sapiens, UniProt P29597).
T2 construct: wt human TYK2, catalytic site; purchased SignalChem
T2 sequence (P29597 897-1176 limits assumed): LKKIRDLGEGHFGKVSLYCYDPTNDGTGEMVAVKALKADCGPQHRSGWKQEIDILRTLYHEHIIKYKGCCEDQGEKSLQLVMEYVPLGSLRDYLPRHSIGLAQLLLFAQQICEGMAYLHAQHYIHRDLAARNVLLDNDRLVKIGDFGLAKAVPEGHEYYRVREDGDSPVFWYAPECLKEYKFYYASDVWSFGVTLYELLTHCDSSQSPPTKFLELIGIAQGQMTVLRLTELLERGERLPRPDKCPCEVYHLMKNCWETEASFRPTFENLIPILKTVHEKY
As to the kind of experiment: HTRF KinEASE assay, TYK2. Conditions: 1 μM ATP; read-out: IC50, Activity Toward TYK2. It counts as biochemical. In short, it runs like this:
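HTRF KinEASE-TK readout with 1 μM biotinylated TK substrate in 1× kinase buffer, ≥30 min at room temperature, then antibody/streptavidin-XL665 detection for 60 min. TYK2 at 2 nM with 1 μM ATP; JAK2 at 1 nM with 100 μM ATP. Analysis uses emission ratios.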

pIC50: −log10 of the molar value. Where only a bound is given, the exact number is not on record here.

T1 sequence (P23458 875-1153 limits assumed): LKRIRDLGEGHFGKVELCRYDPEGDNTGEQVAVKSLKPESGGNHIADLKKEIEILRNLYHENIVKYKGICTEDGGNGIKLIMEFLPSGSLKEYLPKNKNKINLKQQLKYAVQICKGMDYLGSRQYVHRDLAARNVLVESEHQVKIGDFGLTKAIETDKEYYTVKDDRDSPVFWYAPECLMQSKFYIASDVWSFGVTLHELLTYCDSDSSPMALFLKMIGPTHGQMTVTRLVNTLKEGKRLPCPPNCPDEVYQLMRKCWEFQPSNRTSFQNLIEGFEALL

The term pIC50 denotes −log10 of the IC50, conventionally taken in molar units. Consider `CC(C)c1nnnn1-c1ccc(Nc2cn(-c3c(Cl)cccc3Cl)nc2C(N)=O)cn1` [compound 393, 1-(2,6-dichlorophenyl)-4-((6-(5-isopropyl-1H-tetrazol-1-yl)pyridin-3-yl)amino)-1H-pyrazole-3-carboxamide], for which the pIC50 in assay [1] and in assay [2] was 6.00 to 7.00 throughout.
For the compound `NC(=O)c1nn(-c2c(Cl)cccc2Cl)cc1Nc1ccn(-c2ccccn2)n1` [compound 397, 1-(2,6-dichlorophenyl)-4-((1-(pyridin-2-yl)-1H-pyrazol-3-yl)amino)-1H-pyrazole-3-carboxamide], the pIC50 in assay [1] and in assay [2] was 6.00 to 7.00 throughout.
As for `CCc1cnncc1-c1ccc(Nc2cn(-c3c(Cl)cccc3Cl)nc2C(N)=O)cn1` [compound 351, 1-(2,6-dichlorophenyl)-4-((6-(5-ethylpyridazin-4-yl)pyridin-3-yl)amino)-1H-pyrazole-3-carboxamide], the pIC50 is 6.00 to 7.00 in assay [1] and 7.00 to 8.00 in assay [2].
Take `Cn1ccc(=O)n1-c1ccc(Nc2cn(-c3c(Cl)cccc3Cl)nc2C(N)=O)cc1` [compound 77, 1-(2,6-dichlorophenyl)-4-((4-(2-methyl-5-oxo-2,5-dihydro-1H-pyrazol-1-yl)phenyl)amino)-1H-pyrazole-3-carboxamide]: the pIC50 in assay [1] and in assay [2] was 6.00 to 7.00 throughout.
For `CN(C)C1CCN(C(=O)c2ccc(Nc3nn(-c4c(Cl)cccc4Cl)nc3C(N)=O)nc2)CC1` [compound 149, 2-(2,6-dichlorophenyl)-5-((5-(4-(dimethylamino)piperidine-1-carbonyl)pyridin-2-yl)amino)-2H-1,2,3-triazole-4-carboxamide], the pIC50 in assay [1] is over 8.00; in assay [2] it was 7.00 to 8.00.
With `Cc1cc(C)n(-c2ccc(Nc3cn(-c4c(Cl)cccc4Cl)nc3C(N)=O)cc2)n1` [compound 216, 1-(2,6-dichlorophenyl)-4-((4-(3,5-dimethyl-1H-pyrazol-1-yl)phenyl)amino)-1H-pyrazole-3-carboxamide], the pIC50 in assay [1] and in assay [2] was 7.00 to 8.00 each time.
In the case of `Cc1cnnn1-c1ccc(Nc2nn(-c3c(Cl)cccc3Cl)nc2C(N)=O)nc1` [compound 141, 2-(2,6-dichlorophenyl)-5-((5-(5-methyl-1H-1,2,3-triazol-1-yl)pyridin-2-yl)amino)-2H-1,2,3-triazole-4-carboxamide], the pIC50 in assay [1] and in assay [2] was 7.00 to 8.00 in each case.
On to `CN(C)CCc1nnnn1-c1ccc(Nc2cn(-c3c(Cl)cccc3Cl)nc2C(N)=O)cc1` [compound 273, 1-(2,6-dichlorophenyl)-4-((4-(5-(2-(dimethylamino)ethyl)-1H-tetrazol-1-yl)phenyl)amino)-1H-pyrazole-3-carboxamide], for which the negative logarithm of the IC50 (pIC50) in assay [1] and in assay [2] was 7.00 to 8.00 throughout.
For `Cn1nc(C(F)(F)F)nc1-c1ccc(Nc2cn(-c3c(Cl)cccc3Cl)nc2C(N)=O)cc1` [compound 215, 1-(2,6-dichlorophenyl)-4-((4-(1-methyl-3-(trifluoromethyl)-1H-1,2,4-triazol-5-yl)phenyl)amino)-1H-pyrazole-3-carboxamide], the negative-log IC50 (pIC50) is 7.00 to 8.00 in assay [1] and over 8.00 in assay [2].
Consider `N#Cc1cccc2nnc(-c3ccc(Nc4cn(-c5c(Cl)cccc5Cl)nc4C(N)=O)cn3)n12` [compound 476, 4-((6-(5-cyano-[1,2,4]triazolo[4,3-a]pyridin-3-yl)pyridin-3-yl)amino)-1-(2,6-dichlorophenyl)-1H-pyrazole-3-carboxamide], for which the negative-log IC50 (pIC50) is 7.00 to 8.00 in assay [1] and 6.00 to 7.00 in assay [2].
On to `NC(=O)c1nn(-c2c(Cl)cccc2Cl)cc1Nc1ccc(C(=O)N2CCN(CC(F)(F)F)CC2)cc1` [compound 93, 1-(2,6-dichlorophenyl)-4-((4-(4-(2,2,2-trifluoroethyl)piperazine-1-carbonyl)phenyl)amino)-1H-pyrazole-3-carboxamide], for which the values for the negative logarithm of the IC50 (pIC50) in assay [1] and in assay [2] were 6.00 to 7.00 and 7.00 to 8.00, respectively.
Regarding `Cc1c(C#N)cnn1-c1ccc(Nc2cn(-c3c(Cl)cccc3Cl)nc2C(N)=O)cc1` [compound 253, 4-((4-(4-cyano-5-methyl-1H-pyrazol-1-yl)phenyl)amino)-1-(2,6-dichlorophenyl)-1H-pyrazole-3-carboxamide], the pIC50 in assay [1] and in assay [2] was 6.00 to 7.00 each time.
`Cc1cncc2nnc(-c3ccc(Nc4nn(-c5c(Cl)cccc5Cl)nc4C(N)=O)cn3)n12` [compound 161, 2-(2,6-dichlorophenyl)-5-((6-(5-methyl-[1,2,4]triazolo[4,3-a]pyrazin-3-yl)pyridin-3-yl)amino)-2H-1,2,3-triazole-4-carboxamide]: the pIC50 in assay [1] and in assay [2] was 7.00 to 8.00 each time.
For `Cc1cnn(-c2ccc(Nc3cn(-c4c(Cl)cccc4Cl)nc3C(N)=O)cc2)c1C` [compound 218, 1-(2,6-dichlorophenyl)-4-((4-(4,5-dimethyl-1H-pyrazol-1-yl)phenyl)amino)-1H-pyrazole-3-carboxamide], the pIC50 in assay [1] and in assay [2] was 6.00 to 7.00 throughout.
For the compound `NC(=O)c1nn(-c2c(Cl)cccc2Cl)nc1Nc1ccc(N2CCOCC2)cn1` [compound 143, 2-(2,6-dichlorophenyl)-5-((5-morpholinopyridin-2-yl)amino)-2H-1,2,3-triazole-4-carboxamide], the pIC50 in assay [1] and in assay [2] was 6.00 to 7.00 throughout.
Consider `NC(=O)c1nn(-c2c(Cl)cccc2Cl)cc1Nc1ccc(C(=O)NC2CCCNC2)cc1` (stereo not shown) [compound 39, 1-(2,6-dichlorophenyl)-4-((4-(piperidin-3-ylcarbamoyl)phenyl)amino)-1H-pyrazole-3-carboxamide], for which the pIC50 in assay [1] was 7.00 to 8.00; in assay [2], 6.00 to 7.00.
On to `N#CC1CN(C(=O)c2ccc(Nc3nn(-c4c(Cl)cccc4Cl)nc3C(N)=O)nc2)C1` [compound 153, 5-((5-(3-cyanoazetidine-1-carbonyl)pyridin-2-yl)amino)-2-(2,6-dichlorophenyl)-2H-1,2,3-triazole-4-carboxamide], for which the negative-log IC50 (pIC50) in assay [1] and in assay [2] was 7.00 to 8.00 each time.
With `Cn1cc(C(F)(F)F)nc1-c1ccc(Nc2nn(-c3c(Cl)cccc3Cl)nc2C(N)=O)cc1` [compound 115, 2-(2,6-dichlorophenyl)-5-((4-(1-methyl-4-(trifluoromethyl)-1H-imidazol-2-yl)phenyl)amino)-2H-1,2,3-triazole-4-carboxamide], the pIC50 in assay [1] is 6.00 to 7.00; in assay [2], 7.00 to 8.00.
Taken in the same sequence, the figures for `CC(C)(C)OC(=O)N1CCCC(NC(=O)c2ccc(Nc3cn(-c4c(Cl)cccc4Cl)nc3C(N)=O)cc2)C1` (stereo not shown) [compound 33, tert-butyl_3-(4-((3-carbamoyl-1-(2,6-dichlorophenyl)-1H-pyrazol-4-yl)amino)benzamido)piperidine-1-carboxylate] were 6.00 to 7.00 and 6.00 to 7.00.
Regarding `NC(=O)c1nn(-c2c(Cl)cccc2Cl)cc1Nc1ccc(C(=O)N2CC(F)(F)C(F)(F)C2)cc1` [compound 254, 1-(2,6-dichlorophenyl)-4-((4-(3,3,4,4-tetrafluoropyrrolidine-1-carbonyl)phenyl)amino)-1H-pyrazole-3-carboxamide], the negative logarithm of the IC50 (pIC50) is 7.00 to 8.00 in assay [1] and over 8.00 in assay [2].
With `CN1CCn2c(nnc2-c2ccc(Nc3cn(-c4c(Cl)cccc4Cl)nc3C(N)=O)cc2)C1` [compound 269, 1-(2,6-dichlorophenyl)-4-((4-(7-methyl-5,6,7,8-tetrahydro-[1,2,4]triazolo[4,3-a]pyrazin-3-yl)phenyl)amino)-1H-pyrazole-3-carboxamide], the pIC50 in assay [1] and in assay [2] was 7.00 to 8.00 each time.
On to `CN(C)[C@@H]1CCN(C(=O)c2ccc(Nc3nn(-c4c(Cl)cccc4Cl)nc3C(N)=O)nc2)C1` [compound 133, (R)-2-(2,6-dichlorophenyl)-5-((5-(3-(dimethylamino)pyrrolidine-1-carbonyl)pyridin-2-yl)amino)-2H-1,2,3-triazole-4-carboxamide], for which the pIC50 in assay [1] is 7.00 to 8.00; in assay [2], 6.00 to 7.00.
For `NC(=O)c1nn(-c2c(Cl)cccc2Cl)nc1Nc1ccc(-n2ncc3c2CCOC3)cc1` [compound 110, 2-(2,6-Dichloro-phenyl)-5-[4-(6,7-dihydro-4H-pyrano[4,3-c]pyrazol-1-yl)-phenylamino]-2H-[1,2,3]triazole-4-carboxylic acid amide], the pIC50 in assay [1] and in assay [2] was 7.00 to 8.00 throughout.
In the case of `CC(F)(F)c1nnnn1-c1ccc(Nc2cn(-c3c(Cl)cccc3Cl)nc2C(N)=O)cn1` [compound 460, 1-(2,6-dichlorophenyl)-4-((6-(5-(1,1-difluoroethyl)-1H-tetrazol-1-yl)pyridin-3-yl)amino)-1H-pyrazole-3-carboxamide], the pIC50 in assay [1] and in assay [2] was 6.00 to 7.00 in each case.
For `CN1CCN(C(=O)c2ccc(Nc3nn(-c4c(Cl)cccc4Cl)nc3C(N)=O)nc2)CC1` [compound 127, 2-(2,6-dichlorophenyl)-5-((5-(4-methylpiperazine-1-carbonyl)pyridin-2-yl)amino)-2H-1,2,3-triazole-4-carboxamide], the negative logarithm of the IC50 (pIC50) in assay [1] and in assay [2] was 6.00 to 7.00 throughout.
For the compound `Cn1cncc1-c1ccc(Nc2cn(-c3c(Cl)cccc3Cl)nc2C(N)=O)cc1` [compound 204, 1-(2,6-dichlorophenyl)-4-((4-(1-methyl-1H-imidazol-5-yl)phenyl)amino)-1H-pyrazole-3-carboxamide], the figures for the pIC50 in assay [1] and in assay [2] were 6.00 to 7.00 and 7.00 to 8.00, respectively.
